Reference: PMC12186253, “Grafted Coiled-Coil Peptides as Multivalent Scaffolds for Protein Recognition” (ACS Chemical Biology, 2025)

Assays:
[1] = molecular target: T1, FAM-Ahx-BID/MCL-1 complex (Homo sapiens, UniProt Q07820); experiment: Fluorescence anisotropy competition assay, FAM-Ahx-BID/MCL-1; type: binding
T1 construct: residues 172 – 327; His6-SUMO (N, cleaved yes); made in house; host or cells: E. coli BL21-Gold (pET28a)
Text: (1 picture or pasted object on this page, not shown here) […]

[2] = CD thermal unfolding of individual components (peptide or protein alone); type: physicochemical; conditions: CD at 222 nm, 5-85 °C, 20 °C/h; 25 μM in 20 mM phosphate, 100 mM NaCl, pH 7.4
Experimental: CD spectroscopy was used to investigate the secondary structures and thermal stabilities of the designed peptides alone and in the presence of MCL-1.
prepared at 200 – 500 µM in deionized water from solid peptides) were diluted into phosphate
buffer (20 mM phosphate, 100 mM NaCl, pH 7.4) to a final concentration of 25 µM for individual
components, and at a 1:1 ratio (final concentration of all components set as 50 µM for
homomeric species and 75 µM for heterodimeric complex with MCL-1, or 1:1:1 ratio) of the
number of binding sites on the coiled-coil peptides to BH3 binding domain on the protein.
Wavelength spectra were collected (average of 5 scans, from 190 – 300 nm) to evaluate
secondary structure of the individual components and the peptide:protein complexes at 20 °C.
Thermal unfolding experiments monitored the α helical minima at 222 nm from 5 – 85 °C with
a heating ramp of 20 °C/h , and Tm was calculated from the mid -point of unfolding transitions.
A background spectrum of the buffer alone was also collected and subtracted from raw sample
ellipticity values during data conversion.
Data were collected on an APP Chirascan CD spectropolarimeter using 1 mm pathlength
quartz cuvettes. Raw ellipticity data w ere converted to mean residue ellipticity (MRE) using
MRE = (([θ]λ – [θ]0) x Mw) / (n x l x c) […]
curves, the fraction folded was calculated with the following equation […]

T1 sequence (Q07820 172-327, one chain of several): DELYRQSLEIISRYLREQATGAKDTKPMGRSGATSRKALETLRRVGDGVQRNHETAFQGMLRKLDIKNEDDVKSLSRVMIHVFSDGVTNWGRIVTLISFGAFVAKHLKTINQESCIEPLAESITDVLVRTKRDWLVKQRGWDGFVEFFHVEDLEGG

Row | Substance | IC50 [1] | Tm (thermal unfolding midpoint), component alone [2]
1 | Ac-GELLAIKQELLRIIGDLVAIKQELLNIKQGYG-NH2 [CC-Tet_E1] | 7.4 ± 0.8 µM | 
2 | MCL-1: α-helix-binding antiapoptotic target protein, residues 172 – 327, expressed in E. coli |  | 62 °C
3 | Ac-GEILAIKQEILRIIGDNVAIKQEILNIKQGYG-NH2 [CC-Tri_E1] | 68 ± 16 µM | 
4 | Ac-GEILALKQEILRLIGDNVALKQEILNLKQGYG-NH2 [CC-Di_E1] | 0.8 ± 0.1 µM | 
